Values quoted from earlier work as cited in patent US20070071689A1, “Advantageous combination for inhalation of nacystelyn and bronchodilators” (GALEPHAR M/F, priority 2003, published 2007).

Experiments:
[1] = administration via the inhalation route
[2] = test system: cystic fibrosis patients; settings: in comparison to placebo
[3] = in comparison to ACC

In the case of `CC(=O)N[C@@H](CS)C(=O)O` [ACC, acetylcysteine], the “bronchospasms (side effects)” value [1] is listed as “can be responsible for reflex bronchospasms”.
For L-Lysine N-Acetylcysteinate [NAL], the “number and severity of lung exacerbations” value [2] is listed as “significantly decrease the number and severity of lung exacerbations”, the active dose [3] is listed as “active at lower doses than ACC” and the “mucolytic and antioxidant activity” value [3] is listed as “superior to the activity of ACC”.
